Results on 20 compounds are retold here after PubChem BioAssay (NCI).

The structures appear in SMILES notation.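 Results reflect a 48-hour exposure of cells in 96-well plates to compound at five concentrations. Definition used: TGI = concentration required for complete inhibition of growth.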

For the first experiment, the system named is NCI-H460 lung. Description: growth of human tumour cells (NCI), 48 h.
With `CSc1c(C(=O)Nc2ccccc2)c(N)n(N)c(=O)c1C#N`, the TGI is over 100 µM.

As for `CCCCCCCC(CC(=O)NC(CO)C(=O)NC(CO)CC(C)C)OC(=O)CC(CCCCCCC)OC(=O)CC(CCCCCCC)OC1OC(C)C(O)C(OC2OC(C)C(OC(C)=O)C(O)C2O)C1O` (centres undefined), the TGI came to 15.6 µM.

In the case of `O=C1C2=Cc3ccccc3OC2(O)Oc2cc3ccccc3cc21` (centres undefined), the TGI was over 100 µM.

A further experiment deals with U251 CNS. Description: growth of human tumour cells (NCI), 48 h.
For the compound `Clc1ccc(CCN(CCc2ccc(Cl)c(Cl)c2)CCN2CCCC2)cc1Cl`, the TGI came out at 2.95 µM.

The compound `O=C(O)CO[C@@]12C#C/C=C\C#C[C@@H]3N(C(=O)Oc4ccccc4)c4ccccc4[C@]14O[C@@]34CCC2` displayed a TGI of 54.8 µM.

Compound `CC1C2CC(C(S(=O)(=O)O)C2=O)C1(C)C` (centres undefined) gave a TGI of over 100 µM.

The compound `COc1ccc(/C=C2\N=C(N3CCCCC3)NC2=O)cc1` yielded a TGI of over 100 µM.

`CC(C)NC(=O)OCc1c2c(n(C)c1COC(=O)NC(C)C)-c1cc(Cl)c(Cl)cc1CC2` displayed a TGI of 40.6 µM.

In turn, `Cc1ccc(C2(O)CSC(=NC34CC5CC(CC(C5)C3)C4)N2C(P(=O)(O)O)P(=O)(O)O)cc1` (centres undefined) displayed a TGI of over 100 µM.

For `CNc1ncccc1Nc1cc(=O)n2c3cccnc3n(C)c2c1`, the TGI is over 100 µM.

Regarding `CC1(C)C2CCC1(C)C(N/C(Sc1ccccc1)=C(/C(Cl)=C(Cl)Cl)[N+](=O)[O-])C2` (centres undefined), the TGI was found to be 23.5 µM.

`O=C(NC1=C(Cl)C(=O)c2ccccc2C1=O)c1ccccc1` displayed a TGI of 81.1 µM.

`C/C(=N\NS(=O)(=O)c1ccc(C)cc1)c1ccccn1` gave a TGI of over 100 µM.

Consider `CN(/N=C/c1ccc(C(=O)O)cc1)C1=NCCCCN1`, for which the TGI was over 100 µM.

The compound `COc1ccc2nc(N/N=C/c3sccc3C)cc(C)c2c1` showed a TGI of 73.5 µM.

Consider `C=C(C)C1CCC(C(=O)O)CC1` (centres undefined), for which the TGI is over 100 µM.

For `C=CCCON(C(=O)OC(C)(C)C)c1ccccc1`, the TGI was over 100 µM.

`Nc1cc([N+](=O)[O-])ccc1C(=O)N1CCC[C@H]1CO` gave a TGI of over 100 µM.

The compound `CC[C@@H](C)[C@H](NC(=O)[C@H](Cc1ccccc1)NCC(F)(F)F)C(=O)OC(C)(C)C` returned a TGI of over 100 µM.

Take `CSc1c(C(=O)Nc2ccccc2)c(N)n(N)c(=O)c1C#N`: the TGI is over 100 µM.

Regarding `C=CCn1c(N)c(C#N)c(C#N)c1CCC`, the TGI is over 100 µM.

`CCCCCCCC(CC(=O)NC(CO)C(=O)NC(CO)CC(C)C)OC(=O)CC(CCCCCCC)OC(=O)CC(CCCCCCC)OC1OC(C)C(O)C(OC2OC(C)C(OC(C)=O)C(O)C2O)C1O` (centres undefined) registered a TGI of 14.7 µM.

As to `O=C1C2=Cc3ccccc3OC2(O)Oc2cc3ccccc3cc21` (centres undefined), the TGI is over 100 µM.

The subject of a further experiment is MDA-MB-231 breast. Description: growth of human tumour cells (NCI), 48 h.
`Clc1ccc(CCN(CCc2ccc(Cl)c(Cl)c2)CCN2CCCC2)cc1Cl` registered a TGI of 2.91 µM.

On to `O=C(O)CO[C@@]12C#C/C=C\C#C[C@@H]3N(C(=O)Oc4ccccc4)c4ccccc4[C@]14O[C@@]34CCC2`, for which the TGI turned out to be 26.6 µM.

With `CC1C2CC(C(S(=O)(=O)O)C2=O)C1(C)C` (centres undefined), the TGI was over 100 µM.

`COc1ccc(/C=C2\N=C(N3CCCCC3)NC2=O)cc1` yielded a TGI of over 100 µM.

For `CC(C)NC(=O)OCc1c2c(n(C)c1COC(=O)NC(C)C)-c1cc(Cl)c(Cl)cc1CC2`, the TGI was 55.3 µM.

As to `Cc1ccc(C2(O)CSC(=NC34CC5CC(CC(C5)C3)C4)N2C(P(=O)(O)O)P(=O)(O)O)cc1` (centres undefined), the TGI was over 100 µM.

For `CNc1ncccc1Nc1cc(=O)n2c3cccnc3n(C)c2c1`, the TGI is over 100 µM.

Take `CC1(C)C2CCC1(C)C(N/C(Sc1ccccc1)=C(/C(Cl)=C(Cl)Cl)[N+](=O)[O-])C2` (centres undefined): the TGI was found to be 22 µM.

Compound `O=C(NC1=C(Cl)C(=O)c2ccccc2C1=O)c1ccccc1` had a TGI of over 100 µM.

Consider `C/C(=N\NS(=O)(=O)c1ccc(C)cc1)c1ccccn1`, for which the TGI was over 100 µM.

Consider `CN(/N=C/c1ccc(C(=O)O)cc1)C1=NCCCCN1`, for which the TGI was over 100 µM.

As for `COc1ccc2nc(N/N=C/c3sccc3C)cc(C)c2c1`, the TGI is 16.1 µM.

`C=C(C)C1CCC(C(=O)O)CC1` (centres undefined): the TGI was over 100 µM.

Take `C=CCCON(C(=O)OC(C)(C)C)c1ccccc1`: the TGI was over 100 µM.

In the case of `Nc1cc([N+](=O)[O-])ccc1C(=O)N1CCC[C@H]1CO`, the TGI was over 100 µM.

As to `CC[C@@H](C)[C@H](NC(=O)[C@H](Cc1ccccc1)NCC(F)(F)F)C(=O)OC(C)(C)C`, the TGI was over 100 µM.

In turn, `CSc1c(C(=O)Nc2ccccc2)c(N)n(N)c(=O)c1C#N` displayed a TGI of over 100 µM.

`C=CCn1c(N)c(C#N)c(C#N)c1CCC` showed a TGI of over 100 µM.

Take `CCCCCCCC(CC(=O)NC(CO)C(=O)NC(CO)CC(C)C)OC(=O)CC(CCCCCCC)OC(=O)CC(CCCCCCC)OC1OC(C)C(O)C(OC2OC(C)C(OC(C)=O)C(O)C2O)C1O` (centres undefined): the TGI came out at 20.4 µM.

In turn, `O=C1C2=Cc3ccccc3OC2(O)Oc2cc3ccccc3cc21` (centres undefined) gave a TGI of over 100 µM.

For another experiment, the system named is M14 melanoma. Description: growth of human tumour cells (NCI), 48 h.
For the compound `Clc1ccc(CCN(CCc2ccc(Cl)c(Cl)c2)CCN2CCCC2)cc1Cl`, the TGI was determined as 3.1 µM.

For `O=C(O)CO[C@@]12C#C/C=C\C#C[C@@H]3N(C(=O)Oc4ccccc4)c4ccccc4[C@]14O[C@@]34CCC2`, the TGI was over 100 µM.

As to `CC1C2CC(C(S(=O)(=O)O)C2=O)C1(C)C` (centres undefined), the TGI is over 100 µM.

Compound `COc1ccc(/C=C2\N=C(N3CCCCC3)NC2=O)cc1` showed a TGI of over 100 µM.

The compound `CC(C)NC(=O)OCc1c2c(n(C)c1COC(=O)NC(C)C)-c1cc(Cl)c(Cl)cc1CC2` yielded a TGI of 66.6 µM.

Compound `Cc1ccc(C2(O)CSC(=NC34CC5CC(CC(C5)C3)C4)N2C(P(=O)(O)O)P(=O)(O)O)cc1` (centres undefined) returned a TGI of over 100 µM.

Take `CNc1ncccc1Nc1cc(=O)n2c3cccnc3n(C)c2c1`: the TGI was over 100 µM.

`CC1(C)C2CCC1(C)C(N/C(Sc1ccccc1)=C(/C(Cl)=C(Cl)Cl)[N+](=O)[O-])C2` (centres undefined) registered a TGI of 25.9 µM.

As to `O=C(NC1=C(Cl)C(=O)c2ccccc2C1=O)c1ccccc1`, the TGI is over 100 µM.

The compound `C/C(=N\NS(=O)(=O)c1ccc(C)cc1)c1ccccn1` came in with a TGI of over 100 µM.

As for `CN(/N=C/c1ccc(C(=O)O)cc1)C1=NCCCCN1`, the TGI is over 100 µM.

`COc1ccc2nc(N/N=C/c3sccc3C)cc(C)c2c1` showed a TGI of 25.3 µM.

`C=C(C)C1CCC(C(=O)O)CC1` (centres undefined) came in with a TGI of over 100 µM.

On to `C=CCCON(C(=O)OC(C)(C)C)c1ccccc1`, for which the TGI was over 100 µM.

In turn, `CC[C@@H](C)[C@H](NC(=O)[C@H](Cc1ccccc1)NCC(F)(F)F)C(=O)OC(C)(C)C` displayed a TGI of over 100 µM.

Compound `CSc1c(C(=O)Nc2ccccc2)c(N)n(N)c(=O)c1C#N` showed a TGI of over 100 µM.

The compound `C=CCn1c(N)c(C#N)c(C#N)c1CCC` came in with a TGI of over 100 µM.

Compound `CCCCCCCC(CC(=O)NC(CO)C(=O)NC(CO)CC(C)C)OC(=O)CC(CCCCCCC)OC(=O)CC(CCCCCCC)OC1OC(C)C(O)C(OC2OC(C)C(OC(C)=O)C(O)C2O)C1O` (centres undefined) yielded a TGI of 13.8 µM.

In turn, `O=C1C2=Cc3ccccc3OC2(O)Oc2cc3ccccc3cc21` (centres undefined) returned a TGI of over 100 µM.

The subject of another experiment is OVCAR-5 ovarian. Description: growth of human tumour cells (NCI), 48 h.
The compound `Clc1ccc(CCN(CCc2ccc(Cl)c(Cl)c2)CCN2CCCC2)cc1Cl` gave a TGI of 3.23 µM.

The compound `CC1C2CC(C(S(=O)(=O)O)C2=O)C1(C)C` (centres undefined) had a TGI of over 100 µM.

In turn, `COc1ccc(/C=C2\N=C(N3CCCCC3)NC2=O)cc1` gave a TGI of over 100 µM.

As to `CC(C)NC(=O)OCc1c2c(n(C)c1COC(=O)NC(C)C)-c1cc(Cl)c(Cl)cc1CC2`, the TGI was over 100 µM.

The compound `Cc1ccc(C2(O)CSC(=NC34CC5CC(CC(C5)C3)C4)N2C(P(=O)(O)O)P(=O)(O)O)cc1` (centres undefined) had a TGI of over 100 µM.

In turn, `CNc1ncccc1Nc1cc(=O)n2c3cccnc3n(C)c2c1` yielded a TGI of over 100 µM.

In the case of `CC1(C)C2CCC1(C)C(N/C(Sc1ccccc1)=C(/C(Cl)=C(Cl)Cl)[N+](=O)[O-])C2` (centres undefined), the TGI is 65.5 µM.
